Tested on: JR251 or RBL cells
Assay: Store-operated calcium entry, either JR251 or RBL cells, or both
Assay type: cell-based
Procedure, shortened: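 Orai1/STIM1 stable cells: fluo-4-AM loaded, compound 30 min at RT in Ca2+-free HBSS, then CaCl2 added; IC50 from Peak-Basal FLIPR fluorescence. RBL-2H3 cells: compound 5 min, then thapsigargin (5.5× stock, 5.5 uM) 25 min, then calcium added; IC50 from Upslope (signal 7 s after calcium minus baseline).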

| SMILES | IC50 |
| --- | --- |
| O=C(Nc1scc(-c2ccc(Cl)cc2)c1C(=O)O)c1ccc2scnc2c1 [2-(benzo[d]thiazole-5-carboxamido)-4-(4-chlorophenyl)thiophene-3-carboxylic acid] | < 10 µM |
| COc1ccc(-c2csc(NC(=O)c3cc4ccccc4o3)c2C(=O)O)c(F)c1F [2-(benzofuran-2-carboxamido)-4-(2,3-difluoro-4-methoxyphenyl)thiophene-3-carboxylic acid] | < 10 µM |
| Cc1ccc(-c2csc(NC(=O)c3cc4ccccc4o3)c2C(=O)O)c(F)c1F [2-(benzofuran-2-carboxamido)-4-(2,3-difluoro-4-methylphenyl)thiophene-3-carboxylic acid] | < 10 µM |
| O=C(Nc1scc(-c2c(F)cc(F)cc2F)c1C(=O)O)c1cc2ccccc2o1 [2-(benzofuran-2-carboxamido)-4-(2,4,6-trifluorophenyl)thiophene-3-carboxylic acid] | < 10 µM |
| N#Cc1c(Cl)ccc(-c2csc(NC(=O)c3cc4ccccc4o3)c2C(=O)O)c1Cl [2-(benzofuran-2-carboxamido)-4-(2,4-dichloro-3-cyanophenyl)thiophene-3-carboxylic acid] | < 10 µM |
| COc1c(F)ccc(-c2csc(NC(=O)c3cc4ccccc4o3)c2C(=O)O)c1F [2-(benzofuran-2-carboxamido)-4-(2,4-difluoro-3-methoxyphenyl)thiophene-3-carboxylic acid] | < 10 µM |
| COc1cc(F)c(-c2csc(NC(=O)c3cc4ccccc4o3)c2C(=O)O)cc1F [2-(benzofuran-2-carboxamido)-4-(2,5-difluoro-4-methoxyphenyl)thiophene-3-carboxylic acid] | < 10 µM |
| O=C(Nc1scc(-c2cc(F)c(F)c(F)c2)c1C(=O)O)c1cc2ccccc2o1 [2-(benzofuran-2-carboxamido)-4-(3,4,5-trifluorophenyl)thiophene-3-carboxylic acid] | < 10 µM |
| Cc1c(-c2csc(NC(=O)c3cc4ccccc4o3)c2C(=O)O)ccc(Cl)c1Cl [2-(benzofuran-2-carboxamido)-4-(3,4-dichloro-2-methylphenyl)thiophene-3-carboxylic acid] | < 10 µM |
| O=C(Nc1scc(-c2ccc(Br)c(F)c2F)c1C(=O)O)c1cc2ccccc2o1 [2-(benzofuran-2-carboxamido)-4-(4-bromo-2,3-difluorophenyl)thiophene-3-carboxylic acid] | < 10 µM |
| O=C(Nc1scc(-c2cc(F)c(Cl)cc2F)c1C(=O)O)c1cc2ccccc2o1 [2-(benzofuran-2-carboxamido)-4-(4-chloro-2,5-difluorophenyl)thiophene-3-carboxylic acid] | < 10 µM |
| Cc1cc(-c2csc(NC(=O)c3cc4ccccc4o3)c2C(=O)O)c(F)cc1Cl [2-(benzofuran-2-carboxamido)-4-(4-chloro-2-fluoro-5-methylphenyl)thiophene-3-carboxylic acid] | < 10 µM |
| O=C(Nc1scc(-c2cc(F)c(Cl)c(F)c2)c1C(=O)O)c1cc2ccccc2o1 [2-(benzofuran-2-carboxamido)-4-(4-chloro-3,5-difluorophenyl)thiophene-3-carboxylic acid] | < 10 µM |
| Cc1c(F)ccc(-c2csc(NC(=O)c3cc4ccccc4o3)c2C(=O)O)c1C [2-(benzofuran-2-carboxamido)-4-(4-fluoro-2,3-dimethylphenyl)thiophene-3-carboxylic acid] | < 10 µM |
| Cc1cc(-c2csc(NC(=O)c3cc4ccccc4o3)c2C(=O)O)c(C)cc1F [2-(benzofuran-2-carboxamido)-4-(4-fluoro-2,5-dimethylphenyl)thiophene-3-carboxylic acid] | < 10 µM |
| COc1cc(Br)cc2cc(-c3csc(NC(=O)c4cc5ccccc5o4)c3C(=O)O)oc12 [2-(benzofuran-2-carboxamido)-4-(5-bromo-7-methoxybenzofuran-2-yl)thiophene-3-carboxylic acid] | < 10 µM |
| Cc1cc(F)c(-c2csc(NC(=O)c3cc4ccccc4o3)c2C(=O)O)cc1Cl [2-(benzofuran-2-carboxamido)-4-(5-chloro-2-fluoro-4-methylphenyl)thiophene-3-carboxylic acid] | < 10 µM |
| O=C(Nc1scc(-c2cc3cc(Cl)ccc3o2)c1C(=O)O)c1cc2ccccc2o1 [2-(benzofuran-2-carboxamido)-4-(5-chlorobenzofuran-2-yl)thiophene-3-carboxylic acid] | < 10 µM |
| O=C(Nc1scc(-c2cc3cc(O)ccc3o2)c1C(=O)O)c1cc2ccccc2o1 [2-(benzofuran-2-carboxamido)-4-(5-hydroxybenzofuran-2-yl)thiophene-3-carboxylic acid] | < 10 µM |
| COc1ccc2oc(-c3csc(NC(=O)c4cc5ccccc5o4)c3C(=O)O)cc2c1 [2-(benzofuran-2-carboxamido)-4-(5-methoxybenzofuran-2-yl)thiophene-3-carboxylic acid] | < 10 µM |
| O=C(Nc1scc(-c2cc3cccc(OCc4ccccc4)c3o2)c1C(=O)O)c1cc2ccccc2o1 [2-(benzofuran-2-carboxamido)-4-(7-(benzyloxy)benzofuran-2-yl)thiophene-3-carboxylic acid] | < 10 µM |
| N#Cc1cccc2cc(-c3csc(NC(=O)c4cc5ccccc5o4)c3C(=O)O)oc12 [2-(benzofuran-2-carboxamido)-4-(7-cyanobenzofuran-2-yl)thiophene-3-carboxylic acid] | < 10 µM |
| O=C(Nc1scc(-c2cc3cccc(O)c3o2)c1C(=O)O)c1cc2ccccc2o1 [2-(benzofuran-2-carboxamido)-4-(7-hydroxybenzofuran-2-yl)thiophene-3-carboxylic acid] | < 10 µM |
| COc1cccc2cc(-c3csc(NC(=O)c4cc5ccccc5o4)c3C(=O)O)oc12 [2-(benzofuran-2-carboxamido)-4-(7-methoxybenzofuran-2-yl)thiophene-3-carboxylic acid] | < 10 µM |
| O=C(Nc1scc(-c2cc3ccccc3o2)c1C(=O)O)c1cc2ccccc2o1 [2-(benzofuran-2-carboxamido)-4-(benzofuran-2-yl)thiophene-3-carboxylic acid] | < 10 µM |
| Cc1ccc(-c2csc(NC(=O)c3ccc4occc4c3)c2C(=O)O)c(F)c1F [2-(benzofuran-5-carboxamido)-4-(2,3-difluoro-4-methylphenyl)thiophene-3-carboxylic acid] | < 10 µM |

Further lines, results first:

| IC50 | SMILES |
| --- | --- |
| < 10 µM | O=C(Nc1scc(-c2cc3cccc(O)c3o2)c1C(=O)O)c1nc2ccccc2s1 [2-(benzo[d]thiazole-2-carboxamido)-4-(7-hydroxybenzofuran-2-yl)thiophene-3-carboxylic acid] |
| < 10 µM | Cc1ccc(-c2csc(NC(=O)c3nc4ccccc4s3)c2C(=O)O)cc1 [2-(benzo[d]thiazole-2-carboxamido)-4-p-tolylthiophene-3-carboxylic acid] |
| < 10 µM | O=C(Nc1scc(-c2ccc(Cl)cc2)c1C(=O)O)c1ccc2ncsc2c1 [2-(benzo[d]thiazole-6-carboxamido)-4-(4-chlorophenyl)thiophene-3-carboxylic acid] |
| < 10 µM | O=C(Nc1scc(-c2ccc(Cl)cc2)c1C(=O)O)c1nnc2ccccc2n1 [2-(benzo[e][1,2,4]triazine-3-carboxamido)-4-(4-chlorophenyl)thiophene-3-carboxylic acid] |
| < 10 µM | O=C(Nc1scc(-c2ccc3c(c2)CCC3)c1C(=O)O)c1cc2ccccc2o1 [2-(benzofuran-2-carboxamido)-4-(2,3-dihydro-1H-inden-5-yl)thiophene-3-carboxylic acid] |
| < 10 µM | COc1c(Cl)ccc(-c2csc(NC(=O)c3cc4ccccc4o3)c2C(=O)O)c1Cl [2-(benzofuran-2-carboxamido)-4-(2,4-dichloro-3-methoxyphenyl)thiophene-3-carboxylic acid] |
| < 10 µM | O=C(Nc1scc(-c2ccc(F)c(O)c2F)c1C(=O)O)c1cc2ccccc2o1 [2-(benzofuran-2-carboxamido)-4-(2,4-difluoro-3-hydroxyphenyl)thiophene-3-carboxylic acid] |
| < 10 µM | COc1cc(F)c(-c2csc(NC(=O)c3cc4ccccc4o3)c2C(=O)O)c(F)c1 [2-(benzofuran-2-carboxamido)-4-(2,6-difluoro-4-methoxyphenyl)thiophene-3-carboxylic acid] |
| < 10 µM | Cc1cc(-c2csc(NC(=O)c3cc4ccccc4o3)c2C(=O)O)c(C)cc1Br [2-(benzofuran-2-carboxamido)-4-(4-bromo-2,5-dimethylphenyl)thiophene-3-carboxylic acid] |
| < 10 µM | O=C(Nc1scc(-c2ccc(Cl)c(F)c2F)c1C(=O)O)c1cc2ccccc2o1 [2-(benzofuran-2-carboxamido)-4-(4-chloro-2,3-difluorophenyl)thiophene-3-carboxylic acid] |
| < 10 µM | O=C(Nc1scc(-c2ccc(C3CC3)c(F)c2F)c1C(=O)O)c1cc2ccccc2o1 [2-(benzofuran-2-carboxamido)-4-(4-cyclopropyl-2,3-difluorophenyl)thiophene-3-carboxylic acid] |
| < 10 µM | COc1cc(C)c(-c2csc(NC(=O)c3cc4ccccc4o3)c2C(=O)O)cc1C [2-(benzofuran-2-carboxamido)-4-(4-methoxy-2,5-dimethylphenyl)thiophene-3-carboxylic acid] |
| < 10 µM | COc1cc(C)c(-c2csc(NC(=O)c3cc4ccccc4o3)c2C(=O)O)c(C)c1 [2-(benzofuran-2-carboxamido)-4-(4-methoxy-2,6-dimethylphenyl)thiophene-3-carboxylic acid] |
| < 10 µM | O=C(Nc1scc(-c2cc3cc(Br)ccc3o2)c1C(=O)O)c1cc2ccccc2o1 [2-(benzofuran-2-carboxamido)-4-(5-bromobenzofuran-2-yl)thiophene-3-carboxylic acid] |
| < 10 µM | O=C(Nc1scc(-c2cc3ccc(Br)cc3o2)c1C(=O)O)c1cc2ccccc2o1 [2-(benzofuran-2-carboxamido)-4-(6-bromobenzofuran-2-yl)thiophene-3-carboxylic acid] |
| < 10 µM | O=C(Nc1scc(-c2ccc3occc3c2)c1C(=O)O)c1cc2ccccc2o1 [2-(benzofuran-2-carboxamido)-4-(benzofuran-5-yl)thiophene-3-carboxylic acid] |
| < 10 µM | O=C(Nc1scc(-c2ccc(Br)c(F)c2F)c1C(=O)O)c1ccc2occc2c1 [2-(benzofuran-5-carboxamido)-4-(4-bromo-2,3-difluorophenyl)thiophene-3-carboxylic acid] |
